In test [1] the target is T1, Leukotriene A-4 hydrolase (Homo sapiens, UniProt P09960).
T1 sequence (P09960 whole entry): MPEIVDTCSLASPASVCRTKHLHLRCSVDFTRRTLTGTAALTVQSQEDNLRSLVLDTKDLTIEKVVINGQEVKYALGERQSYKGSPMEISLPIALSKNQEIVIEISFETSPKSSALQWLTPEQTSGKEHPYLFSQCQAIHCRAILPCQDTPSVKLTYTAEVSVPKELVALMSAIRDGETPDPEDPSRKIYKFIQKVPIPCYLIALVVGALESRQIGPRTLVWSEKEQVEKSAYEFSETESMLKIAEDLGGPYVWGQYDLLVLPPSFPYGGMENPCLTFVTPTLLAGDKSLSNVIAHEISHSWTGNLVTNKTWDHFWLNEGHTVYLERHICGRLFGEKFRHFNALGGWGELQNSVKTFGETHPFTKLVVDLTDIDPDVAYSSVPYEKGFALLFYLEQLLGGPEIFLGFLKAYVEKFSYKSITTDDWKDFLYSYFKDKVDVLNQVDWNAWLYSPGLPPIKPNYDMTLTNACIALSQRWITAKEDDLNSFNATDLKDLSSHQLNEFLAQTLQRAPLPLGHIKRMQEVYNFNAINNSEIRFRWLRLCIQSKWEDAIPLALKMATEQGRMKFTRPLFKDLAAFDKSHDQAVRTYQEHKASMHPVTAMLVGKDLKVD
Nature of the test: Inhibitory activity against recombinant human Leukotriene A4 hydrolase.

Test [2] addresses T2, Angiotensin-converting enzyme (Oryctolagus cuniculus, UniProt P12822).
T2 sequence (P12822 whole entry): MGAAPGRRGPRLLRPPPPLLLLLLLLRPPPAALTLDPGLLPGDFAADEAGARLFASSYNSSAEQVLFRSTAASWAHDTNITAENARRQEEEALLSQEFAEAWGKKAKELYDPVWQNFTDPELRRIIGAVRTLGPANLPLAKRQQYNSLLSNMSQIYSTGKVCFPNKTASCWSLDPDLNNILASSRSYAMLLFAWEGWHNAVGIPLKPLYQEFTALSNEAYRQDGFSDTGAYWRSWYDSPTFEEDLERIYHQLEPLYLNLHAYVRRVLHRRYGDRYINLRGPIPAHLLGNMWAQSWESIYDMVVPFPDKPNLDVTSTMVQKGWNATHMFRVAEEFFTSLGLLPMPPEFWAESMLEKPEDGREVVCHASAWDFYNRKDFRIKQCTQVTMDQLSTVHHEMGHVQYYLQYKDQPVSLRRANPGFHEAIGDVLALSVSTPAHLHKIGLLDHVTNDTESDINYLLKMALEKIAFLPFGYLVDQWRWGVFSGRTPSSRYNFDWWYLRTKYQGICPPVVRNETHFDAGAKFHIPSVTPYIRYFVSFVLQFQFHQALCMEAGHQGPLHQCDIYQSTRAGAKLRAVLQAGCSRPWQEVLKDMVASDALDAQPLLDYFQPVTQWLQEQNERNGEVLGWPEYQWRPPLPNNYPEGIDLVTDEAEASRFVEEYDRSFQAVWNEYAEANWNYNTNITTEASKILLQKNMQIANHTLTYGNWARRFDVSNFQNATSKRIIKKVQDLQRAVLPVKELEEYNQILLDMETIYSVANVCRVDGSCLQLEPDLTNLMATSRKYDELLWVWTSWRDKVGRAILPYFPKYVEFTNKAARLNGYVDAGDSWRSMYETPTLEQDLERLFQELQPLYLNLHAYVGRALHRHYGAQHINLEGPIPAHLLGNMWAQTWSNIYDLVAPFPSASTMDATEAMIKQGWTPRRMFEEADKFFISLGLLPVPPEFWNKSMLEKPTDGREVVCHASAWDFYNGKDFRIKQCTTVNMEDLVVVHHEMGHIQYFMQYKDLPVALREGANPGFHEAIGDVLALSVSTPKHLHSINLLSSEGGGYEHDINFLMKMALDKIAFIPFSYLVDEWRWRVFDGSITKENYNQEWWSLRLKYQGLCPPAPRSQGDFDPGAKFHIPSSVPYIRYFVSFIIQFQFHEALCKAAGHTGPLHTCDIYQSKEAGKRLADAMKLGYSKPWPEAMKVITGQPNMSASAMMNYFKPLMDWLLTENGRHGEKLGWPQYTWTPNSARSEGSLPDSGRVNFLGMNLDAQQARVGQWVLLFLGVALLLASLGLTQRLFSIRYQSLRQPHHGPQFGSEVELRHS
Nature of the test: Inhibitory activity against rabbit lung angiotensin-converting enzyme(ACE).

Test [3] can be described thus: Inhibitory activity against aminopeptidase.
In test [4] the target is T3, Neprilysin (Oryctolagus cuniculus, UniProt P08049).
T3 sequence (P08049 whole entry): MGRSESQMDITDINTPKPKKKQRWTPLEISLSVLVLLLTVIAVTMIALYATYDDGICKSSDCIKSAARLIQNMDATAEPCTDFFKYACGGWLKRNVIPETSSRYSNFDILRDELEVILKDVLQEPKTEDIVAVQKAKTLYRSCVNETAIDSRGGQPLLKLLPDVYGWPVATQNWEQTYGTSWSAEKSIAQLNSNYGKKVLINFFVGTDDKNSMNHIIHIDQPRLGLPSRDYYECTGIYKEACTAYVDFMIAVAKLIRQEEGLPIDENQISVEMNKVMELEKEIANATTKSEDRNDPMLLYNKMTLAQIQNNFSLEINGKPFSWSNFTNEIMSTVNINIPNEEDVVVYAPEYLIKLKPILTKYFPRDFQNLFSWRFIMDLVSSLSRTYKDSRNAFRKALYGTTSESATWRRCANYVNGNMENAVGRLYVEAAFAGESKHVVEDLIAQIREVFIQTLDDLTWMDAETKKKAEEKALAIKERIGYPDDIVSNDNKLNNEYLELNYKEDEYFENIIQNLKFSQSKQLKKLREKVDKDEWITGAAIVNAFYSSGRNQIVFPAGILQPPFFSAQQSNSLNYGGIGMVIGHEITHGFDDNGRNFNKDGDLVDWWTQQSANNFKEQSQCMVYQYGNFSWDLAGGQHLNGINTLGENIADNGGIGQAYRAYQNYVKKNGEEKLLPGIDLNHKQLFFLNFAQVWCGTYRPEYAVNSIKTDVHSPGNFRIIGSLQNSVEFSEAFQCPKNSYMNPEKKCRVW
Nature of the test: Inhibitory activity against rabbit kidney neutral endopeptidase (NEP).

In test [5] the target is T2, Angiotensin-converting enzyme. Nature of the test: Inhibitory activity against rabbit lung angiotensin-converting enzyme (ACE).
Test [6] has as its target T1, Leukotriene A-4 hydrolase. Put plainly: Inhibitory activity against LTA 4 hydrolase in epoxide hydrolase assay.
The target in test [7] is T1, Leukotriene A-4 hydrolase. Put plainly: Inhibitory activity against LTA 4 hydrolase in aminopeptidase assay.

Where only a bound is given, the exact number is not on record here.

In the case of `C[C@H](NC(=O)[C@@H](CCC(=O)NO)Cc1ccccc1)C(=O)O`, the IC50 in test [1] was above 10000 nM; in test [2], 20000 nM.
On to `O=C(C[C@@H](Cc1ccccc1)C(=O)N[C@@H](Cc1c[nH]c2ccccc12)C(=O)O)NO`, for which the IC50 in test [3] worked out at 5 nM; in test [1], 10 nM.
Take `C[C@@H](C(=O)O)N(C)C(=O)[C@@H](CC(=O)NO)Cc1ccccc1`: the IC50 in test [3] is 1 nM; in test [1], 3 nM; in test [4], 3400 nM; in test [2], above 100000 nM.
Regarding `C[C@H](NC(=O)[C@@H](CC(=O)NO)Cc1ccccc1)C(=O)O` [KELATORPHAN], the IC50 was 7 nM in test [3], above 10000 nM in test [5], 5 nM in test [1] and 46 nM in test [4]. For the same compound, the inhibition constant (Ki) in test [6] was found to be 18 nM; in test [7], 10 nM.
`C[C@H](NC(=O)C(CS)Cc1ccccc1)C(=O)O` (stereo not given in full): the IC50 in test [3] is above 10000 nM; in test [1], above 3000 nM; in test [2], 200 nM.
Turning to `C[C@H](CS)C(=O)N1CCC[C@H]1C(=O)O` [CAPTOPRIL], the IC50 in test [3] was 2000 nM; in test [1], 10000 nM.
For the compound `O=C(C[C@@H](Cc1ccccc1)C(=O)N[C@@H](CC1CCCCC1)C(=O)O)NO`, the IC50 in test [3] is 42 nM; in test [1] it was 10 nM; in test [4] it was 104000 nM; in test [2], above 100000 nM.
With `O=C(C[C@@H](Cc1ccccc1)C(=O)N1CCC[C@@H]1C(=O)O)NO`, the IC50 in test [3] was 15000 nM; in test [5], above 100000 nM; in test [1], 20000 nM.
As for `CSCC[C@@H](NC(=O)[C@@H](CC(=O)NO)Cc1ccccc1)C(=O)O`, the concentration for half-maximal inhibition (IC50) worked out at 2 nM in test [3], 12 nM in test [1], 61000 nM in test [4] and 20000 nM in test [2].
Turning to `C[C@H](NC(=O)[C@@H](CCS)CC1CCCCC1)C(=O)O`, the IC50 in test [1] was above 3000 nM; in test [4] it was above 100000 nM.
For the compound `C[C@H](NC(=O)[C@@H](CC(=O)NO)CC1CCCCC1)C(=O)O`, the IC50 in test [3] was 10 nM; in test [1], 5 nM; in test [4], 2000 nM; in test [2] it was above 100000 nM.
With `O=C(C[C@@H](Cc1ccccc1)C(=O)N1CCCC[C@@H]1C(=O)O)NO`, the values for the IC50 in test [3], in test [1] and in test [2] were 2300 nM, 1800 nM and above 100000 nM, respectively.
On to `O=C(C[C@@H](Cc1ccccc1)C(=O)N1CCC[C@H]1C(=O)O)NO`, for which the IC50 is 18 nM in test [3], 3000 nM in test [5], 30 nM in test [1] and above 36000 nM in test [4].
Consider `O=C(C[C@@H](Cc1ccccc1)C(=O)N1CCCC[C@H]1C(=O)O)NO`, for which the IC50 was found to be 10 nM in test [3], 8 nM in test [1], 17000 nM in test [4] and 40000 nM in test [2].
`C[C@H](NC(=O)[C@@H](CC(=O)O)Cc1ccccc1)C(=O)O`: the IC50 in test [3] was 140 nM; in test [1] it was 300 nM; in test [2], above 100000 nM.

In general, IC50 refers to the point on the concentration scale where inhibition reaches its midpoint. For orientation: Ki means the dissociation constant of the complex between target and ligand, obtained from inhibition or displacement. Higher therefore signals lower affinity.

Values taken from ChEMBL document CHEMBL1128059, “Kelatorphan and related analogs: potent and selective inhibitors of leukotriene A4 hydrolase” (Bioorg Med Chem Lett, 1995).
